# How the values were obtained:
# [1] = tested on: Staphylococcus aureus; assay: Antibacterial activity against Staphylococcus aureus ATCC 29213; assay type: functional
# [2] = tested on: Escherichia coli; assay: Antibacterial activity against Escherichia coli ATCC 25922; assay type: functional
# [3] = tested on: Pseudomonas aeruginosa; assay: Antibacterial activity against Pseudomonas aeruginosa ATCC 27853 harboring APH(3'); assay type: functional
# [4] = tested on: Klebsiella pneumoniae; assay: Antibacterial activity against Klebsiella pneumoniae ATCC 10031; assay type: functional
# [5] = tested on: Staphylococcus aureus; assay: Antibacterial activity against Staphylococcus aureus harboring ANT(4'); assay type: functional
# [6] = tested on: Mycobacterium tuberculosis; assay: Antibacterial activity against Mycobacterium tuberculosis 607; assay type: functional
# [7] = tested on: Salmonella enterica subsp. enterica serovar Paratyphi B; assay: Antibacterial activity against Salmonella schottmuelleri; assay type: functional
# [8] = tested on: Bordetella bronchiseptica; assay: Antibacterial activity against Bordetella bronchiseptica; assay type: functional
# [9] = tested on: Staphylococcus aureus; assay: Antibacterial activity against Staphylococcus aureus; assay type: functional
# [10] = Antibacterial activity against Eberthella typhosa; assay type: functional
# [11] = tested on: Klebsiella pneumoniae; assay: Antibacterial activity against Klebsiella pneumoniae; assay type: functional
# [12] = tested on: Escherichia coli; assay: Antibacterial activity against Escherichia coli; assay type: functional
# [13] = tested on: Bacillus subtilis; assay: Antibacterial activity against Bacillus subtilis; assay type: functional
# [14] = tested on: Proteus vulgaris; assay: Antibacterial activity against Proteus vulgaris; assay type: functional
# [15] = tested on: Pseudomonas aeruginosa; assay: Antibacterial activity against Pseudomonas aeruginosa after 12 hrs; assay type: functional, organism-based
# [16] = Binding affinity to pre-microRNA-27a (unknwon origin) at 500 nM by spectrofluorometric method
# [17] = molecular target: Rev responsive element (RRE) RNA; assay: Displacement of fluorescein-labeled RevF1 from HIV1 66-nucleotide RRE RNA by fluorescence anisotropy method; assay type: nucleic-acid assay, Human immunodeficiency virus 1
# [18] = Binding affinity to 22-mer TAT triplex DNA (unknown origin) at 8 uM by isothermal titration calorimetry
compound,measurement,setting,value
NCC1=CC[C@@H](N)[C@@H](O[C@H]2[C@H](O[C@@H]3O[C@H](CO)[C@@H](O[C@H]4O[C@@H](CN)[C@@H](O)[C@H](O)[C@H]4N)[C@H]3O)[C@@H](O)[C@H](N)C[C@@H]2N)O1,MIC,[1],0.5 to 2 µg/mL
same,MIC,[2],0.5 to 2 µg/mL
same,MIC,[3],0.5 to 2 µg/mL
same,MIC,[4],0.5 to 2 µg/mL
same,MIC,[5],0.5 to 2 µg/mL
NC[C@H]1O[C@H](O[C@H]2[C@H](O)[C@@H](O)[C@H](N)C[C@@H]2N)[C@H](N)[C@@H](O)[C@@H]1O [NEAMINE],MIC,[6],5 µg/mL
same,MIC,[7],1 µg/mL
same,MIC,[8],3.3 µg/mL
same,MIC,[9],0.13 µg/mL
same,MIC,[10],0.17 µg/mL
same,MIC,[11],0.5 µg/mL
same,MIC,[12],1 µg/mL
same,MIC,[13],1 µg/mL
same,MIC,[14],< 0.33 µg/mL
"NC[C@H]1O[C@H](O[C@H]2[C@H](NCCCCCCCCNC(=O)c3cc4c(cn3)[nH]c3ccccc34)[C@@H](O)[C@H](N)C[C@@H]2N)[C@H](N)[C@@H](O)C1O (single isomer, unassigned)",IC50,[15],85.4 µg/mL
NCC1O[C@H](O[C@H]2[C@@H](O)[C@H](O[C@@H]3[C@@H](O)[C@H](N)C[C@H](N)[C@H]3O[C@H]3O[C@H](CN)[C@@H](O)[C@H](O)[C@H]3N)O[C@@H]2CO)[C@H](N)[C@@H](O)[C@@H]1O (some centres not stated),MIC,[6],0.33 µg/mL
same,MIC,[7],0.1 µg/mL
same,MIC,[8],0.5 µg/mL
same,MIC,[9],0.017 µg/mL
same,MIC,[10],0.033 µg/mL
same,MIC,[11],0.05 µg/mL
same,MIC,[12],0.1 µg/mL
same,MIC,[13],0.01 µg/mL
same,MIC,[14],1 µg/mL
CN1CCN(c2ccc3nc(-c4ccc5[nH]c(-c6ccc(OCc7cn(CCCCC(=O)C(CCn8cc(OCc9cn(C[C@H]%10O[C@@H](O[C@@H]%11[C@@H](O)[C@H](N)C[C@H](N)[C@H]%11O[C@H]%11O[C@H](CN)[C@@H](O)[C@H](O)[C@H]%11N)[C@H](O)[C@@H]%10O[C@H]%10O[C@@H](CN)[C@@H](O)[C@H](O)[C@H]%10N)nn9)nn8)CCn8cc(OCc9cn(C[C@H]%10O[C@@H](O[C@@H]%11[C@@H](O)[C@H](N)C[C@H](N)[C@H]%11O[C@H]%11O[C@H](CN)[C@@H](O)[C@H](O)[C@H]%11N)[C@H](O)[C@@H]%10O[C@H]%10O[C@@H](CN)[C@@H](O)[C@H](O)[C@H]%10N)nn9)nn8)nn7)cc6)cc5c4)[nH]c3c2)CC1,Ka,[16],1.2 to 7.4 ×10⁸ /M
NCC1O[C@H](O[C@H]2[C@@H](O)[C@H](O[C@@H]3[C@@H](O)[C@H](N)C[C@H](N)[C@H]3O[C@H]3O[C@H](CN)[C@@H](O)[C@H](O)[C@H]3N)O[C@@H]2CNc2c3ccccc3nc3ccccc23)[C@H](N)[C@@H](O)[C@@H]1O (some centres not stated),Kd,[17],≤ 10 nM
CC(=O)c1ccc2c(ccc3nc4c(NCCCNC(=O)NCCSC[C@H]5O[C@@H](O[C@@H]6[C@@H](O)[C@H](N)C[C@H](N)[C@H]6O[C@H]6O[C@H](CN)[C@@H](O)[C@H](O)[C@H]6N)[C@H](O)[C@@H]5O[C@H]5OC(CN)[C@@H](O)[C@H](O)[C@H]5N)nc5ccccc5c4nc32)c1 (some centres not stated),Kd,[18],27 nM

# Source: ChEMBL document CHEMBL4431294 (Medchemcomm, 2016)
